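Dose response: 5 concentrations. Exposure: 48 h. Format: 96-well plates. Endpoint: linear interpolation; highest concentration if not reached. TGI marks complete inhibition of growth.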 Where a SMILES comes first, the peptide text is derived from it. The star is where a group is joined. Ethyl(2-NMe3+) = C[N+](C)(C)CC*; Boc = CC(C)(C)OC(=O)*
What was measured:
Test in all cases: NCI-60 cell line screen, 48 h
HOP-18 NSCLC = tested on: HOP-18 NSCLC
LXFL 529 NSCLC = tested on: LXFL 529 NSCLC
TK-10 renal = tested on: TK-10 renal
BT-549 breast = tested on: BT-549 breast
SF-539 CNS = tested on: SF-539 CNS
DLD-1 colon = tested on: DLD-1 colon
M19-MEL melanoma = tested on: M19-MEL melanoma
MDA-MB-231 breast = tested on: MDA-MB-231 breast
MCF7 breast = tested on: MCF7 breast
SNB-78 CNS = tested on: SNB-78 CNS
DMS 114 small cell lung = tested on: DMS 114 small cell lung
K-562 leukemia = tested on: K-562 leukemia
DMS 273 small cell lung = tested on: DMS 273 small cell lung
SNB-19 CNS = tested on: SNB-19 CNS
CAKI-1 renal = tested on: CAKI-1 renal
RXF 393 renal = tested on: RXF 393 renal
XF 498 CNS = tested on: XF 498 CNS
HOP-62 NSCLC = tested on: HOP-62 NSCLC
KM20L2 colon = tested on: KM20L2 colon
RXF-631 renal = tested on: RXF-631 renal

| Compound | TGI (HOP-18 NSCLC) | TGI (LXFL 529 NSCLC) | TGI (TK-10 renal) | TGI (BT-549 breast) | TGI (SF-539 CNS) | TGI (DLD-1 colon) | TGI (M19-MEL melanoma) | TGI (MDA-MB-231 breast) | TGI (MCF7 breast) | TGI (SNB-78 CNS) | TGI (DMS 114 small cell lung) | TGI (K-562 leukemia) | TGI (DMS 273 small cell lung) | TGI (SNB-19 CNS) | TGI (CAKI-1 renal) | TGI (RXF 393 renal) | TGI (XF 498 CNS) | TGI (HOP-62 NSCLC) | TGI (KM20L2 colon) | TGI (RXF-631 renal) |
| --- | --- | --- | --- | --- | --- | --- | --- | --- | --- | --- | --- | --- | --- | --- | --- | --- | --- | --- | --- | --- |
| Cn1c(Cl)cn2c3nc4ccccc4nc3c(=O)c(C#N)c12 | > 100 µM | > 100 µM | > 100 µM | > 100 µM | > 100 µM | > 100 µM | > 100 µM | > 100 µM | > 100 µM | > 100 µM | > 100 µM | > 100 µM | > 100 µM | > 100 µM | > 100 µM | > 100 µM | > 100 µM |  |  |  |
| CCOc1cc2c(cc1O)CC[C@@H]1[C@@H]2CC[C@]2(C)C(N)CC[C@@H]12 (stereo partly specified) |  |  | 15 µM | 30.8 µM | 9.25 µM |  |  | 5.56 µM | 28.1 µM |  |  | 27.5 µM |  | 28.2 µM | 22.7 µM | 7.33 µM |  | 40.4 µM |  |  |
| O=C(O)CCc1cccc2c1oc1c(CCC(=O)O)cccc12 | > 100 µM | > 100 µM | > 100 µM |  | > 100 µM | > 100 µM | > 100 µM |  |  | > 100 µM | > 100 µM | > 100 µM | > 100 µM | > 100 µM | > 100 µM | > 100 µM | > 100 µM |  | > 100 µM |  |
| N#Cc1ccc(C(=O)/C=C/c2ccc(O)c(O)c2)cc1 |  |  | 27.6 µM | 25.3 µM | 29.7 µM |  |  | 30.7 µM | 26 µM |  |  | 34 µM |  | 29.3 µM | 29.6 µM | 32.4 µM |  | 32.4 µM |  |  |
| Cc1ccc(C)n1-c1ccccc1C1C=CN(C(=O)OC(C)(C)C)C=C1 |  |  | > 100 µM | > 100 µM | > 100 µM |  |  | 53.3 µM | 32.6 µM |  |  | > 100 µM |  | > 100 µM | > 100 µM | 60.4 µM |  | > 100 µM |  |  |
| Oc1ccc(Cc2nccc3cc(O)c(O)cc23)cc1O |  |  | > 100 µM | > 100 µM | > 100 µM |  |  | > 100 µM | 49.6 µM |  |  | > 100 µM |  | > 100 µM | > 100 µM | > 100 µM |  | > 100 µM |  |  |
| O=P1(c2ccccc2)C(c2ccccc2)=CC=C1c1ccccc1 |  |  | 60.1 µM | > 100 µM | > 100 µM |  |  | > 100 µM | 66.6 µM |  |  | 22.4 µM |  | > 100 µM | > 100 µM | > 100 µM |  | > 100 µM |  |  |
| CC1OC(OC2C(OC(=O)[C@@H]3CC(C)(C)C[C@@H]4C5=CC[C@@H]6[C@@]7(C)C[C@H](O)[C@H](OC8OC(CO)C(O)C(O)C8O)[C@@](C)(CO)C7[C@H](O)C[C@@]6(C)[C@]5(C)C[C@@H](O)[C@H]43)OCC(O)C2O)C(O)C(O)C1O (stereo partly specified) |  |  | > 15 µM | > 15 µM | > 15 µM |  |  | > 15 µM | > 15 µM |  |  | > 15 µM |  | > 15 µM | > 15 µM | > 15 µM |  | > 15 µM |  |  |
| Nc1nc2n[nH]nc2c(=O)[nH]1 | 85.3 µM | > 100 µM | 12.7 µM | 37.8 µM | 1.96 µM | > 100 µM |  | > 100 µM | > 100 µM | > 100 µM | 54.7 µM | > 100 µM | 18.2 µM | > 100 µM | > 100 µM | 2.95 µM |  | 9.42 µM | > 100 µM |  |
| N#CCCN(c1ccc(C=Nc2ccccc2Cl)cc1)S(=O)(=O)c1ccccc1 | > 100 µM | > 100 µM | > 100 µM |  | > 100 µM | > 100 µM | > 100 µM |  |  | > 100 µM | > 100 µM | > 100 µM | > 100 µM | > 100 µM | > 100 µM | > 100 µM | > 100 µM | > 100 µM | > 100 µM | > 100 µM |
| COc1cc([C@H]2CC(=O)C[C@H](c3cc(OC)c(OC)c(OC)c3)C23C(=O)c2ccccc2C3=O)cc(OC)c1OC |  |  | > 100 µM | > 100 µM | > 100 µM |  |  | > 100 µM | > 100 µM |  |  | > 100 µM |  | > 100 µM | > 100 µM | 88.7 µM |  | > 100 µM |  |  |
| C=CC[C@@]1([C@H](C=C)COCc2ccc(OC)cc2)CC[C@]2(C)OC(C)(C)[C@@H](c3ccccc3)N2C1=S |  |  | > 100 µM | > 100 µM | > 100 µM |  |  | > 100 µM | > 100 µM |  |  | > 100 µM |  | > 100 µM | > 100 µM | > 100 µM |  | > 100 µM |  |  |
| CC1=NN(C(=O)CC(=O)Nc2ccc(C)cc2)C(=O)C1N=Nc1ccc(S(=O)(=O)c2ccc(N=NC3C(=O)N(C(=O)CC(=O)Nc4ccc(C)cc4)N=C3C)cc2)cc1 (stereo unspecified) |  |  | > 100 µM | > 100 µM | > 100 µM |  |  | > 100 µM | > 100 µM |  |  | > 100 µM |  | > 100 µM | > 100 µM | > 100 µM |  | > 100 µM |  |  |
| Cc1c(F)c(N)c2c(=O)cc(-c3ccc(N)c(F)c3)oc2c1F |  |  | 6.72 µM | 36.8 µM | 32.3 µM |  |  | 46.3 µM | 4.39 µM |  |  | > 92.9 µM |  | 46.4 µM | 0.114 µM | 41.6 µM |  | 46.8 µM |  |  |
| O=C(Cc1ccc(Cl)cc1)Nc1ccc2oc(-c3ccccc3)nc2c1 |  |  | > 100 µM | > 100 µM | > 100 µM |  |  | > 100 µM | > 100 µM |  |  | > 100 µM |  | > 100 µM | > 100 µM | > 100 µM |  | > 100 µM |  |  |
| c1ccc2c(c1)cc1c3[nH]c4ccccc4c3ccn21 |  |  | > 10 µM | > 10 µM | > 10 µM |  |  | > 10 µM | > 10 µM |  |  | > 10 µM |  | > 10 µM | > 10 µM | > 10 µM |  | > 10 µM |  |  |
| CC(NC(=O)C(Cc1ccc(OCC[N+](C)(C)C)cc1)NC(=O)OC(C)(C)C)C(=O)NC(Cc1ccccc1)C(=O)NCC(N)=O (stereo unspecified) (Boc-Y(Ethyl(2-NMe3+))AFG-NH2; configuration not given here) |  |  | 24 µM | 45.8 µM | 25.5 µM |  |  | 9.1 µM | > 100 µM |  |  | > 100 µM |  | 34.3 µM | > 100 µM | 24 µM |  | 14.5 µM |  |  |
